Data published in US9028845B2, “Chimeric immunomodulatory compounds and methods of using the same-IV” (Dynavax Technologies Corporation, priority 2001, dated 2015).

Columns and labels:
[1] = system: PBMCs; assay: Human PBMC proliferation assay (3H-thymidine incorporation); assay type: cell-based; details: Experiment A; for mean cpm: 2 μg/ml
[2] = system: mouse splenocytes; assay: Mouse splenocyte cytokine secretion (IL-6, IL-12, IFN by ELISA); assay type: cell-based, BALB/c mice; details: 24 h
Method: Polynucleotides and chimeric compounds were tested for immunostimulatory activity on mouse splenocytes. Immunostimulation was assessed by measurement of cytokine secretion into the culture media. Cytokine levels in the culture supernatant were determined by enzyme-linked immunosorbent assay (ELISA) tests.
Cells were isolated and prepared using standard techniques. Spleens of 8 to 20 week-old BALB/c mice were harvested and the splenocytes isolated using standard teasing and treatment with ACK lysing buffer from BioWhittaker, Inc. Four spleens were pooled in this experiment. Isolated cells were washed in RPMI 1640 media supplemented with 2% heat-inactivated fetal calf serum (FCS), 50 μM 2-mercaptoethanol, 1% penicillin-streptomycin, and 2 mM L-glutamine and resuspended at approximately […] in 10% FCS/RPMI (RPMI 1640 media with 10% heat-inactivated FCS, 50 μM 2-mercaptoethanol, 1% penicillin-streptomycin, and 2 mM L-glutamine).
Cell cultures were set up in triplicate with approximately 7×10^5 cells/well in a 96-well flat microtiter plate in 100 μl 10% FCS/RPMI with the cells allowed to rest for at lest 1 hour after plating. The indicated test compounds were incubated (at the indicated concentrations) for 24 hours at 37° C. Cell supernatants were harvested and frozen at −80° C. Cytokine production by the cells was determined by ELISAs, as shown in 19.

[3] = system: mouse lung; assay: Induction of immune-associated genes in the mouse lung after intranasal treatment (quantitative PCR); assay type: in vivo, BALB/c mice; details: 20 ug intranasal, 6 hrs; vs P-7 treated mice
Method: The genes evaluated included genes encoding cytokines, chemokines, cell surface molecules, transcription factors, metalloproteases, and other molecules. The study was performed at Northview Pacific Laboratories (Hercules, Calif.) with 6-8 week old female BALB/c mice from Jackson Labs (Bar Harbor, Me.). […] Therefore, at 6 hrs the lungs were harvested and snap-frozen in liquid nitrogen and stored at −80° C. for later use. Total RNA was isolated using RNeasy mini kits (Qiagen Inc., Valencia, Calif.). The RNA samples were DNAse-treated (Roche Diagnostics, Mannheim, Germany) and converted into cDNA using Superscript II Rnase H-Reverse Transcriptase (Invitrogen, Rockville Md.) as described in Scheerens et al., 2001, Eur. J. of Immunology 31:1465-74. The cDNA samples were pooled per group and in each pooled sample the expression of mRNA of 75 genes was measured using real-time quantitative PCR (ABI Prism 5700, Perkin Elmer Applied Biosystems) and syber green (Qiagen Inc.). In addition to the genes of interest, in each sample the mRNA expression of a housekeeping gene was measured (HPRT or ubiquitin). In order to correct for the amount of RNA in each sample, all data were calculated relative to the expression of the housekeeping gene.

[4] = system: CD19+ B cells; assay: Human B cell proliferation assay (3H-thymidine incorporation); details: 2 μg/ml
[5] = B cells, Donor 146, Experiment A
[6] = B cells, Donor 147, Experiment A
[7] = B cells, donor 194, Experiment B

## 5′-TGACTGTGAACGTTCGAGATGA-3′ (SEQ ID NO: 2) [Compound P-6, reference compound]
[1]; Donor 146, 2 μg/ml
  cpm1: 22067 cpm
  cpm2: 23740 cpm
  cpm3: 28099 cpm
[1]; Donor 146 mean
  mean cpm: 24635 cpm
[1]; Donor 147, 2 μg/ml
  cpm1: 26436 cpm
  cpm2: 23830 cpm
  cpm3: 17531 cpm
[1]; Donor 147 mean
  mean cpm: 22599 cpm
[1]; mean of Donors 146 and 147, 2 μg/ml
  mean of both: 23617 cpm
[2]; dose 0.1 μg/ml
  IFN: 187
  IL-12: 1665
[2]; dose 1.0 μg/ml
  IFN: 2175
  IL-6: 5760
  IL-12: 4565
[2]; dose 5.0 μg/ml
  IFN: 2505
  IL-6: 9311
  IL-12: 5374
[3]
  mRNA expression of immune-associated genes in the lung, in words: potently induce the expression of a variety of genes
[4]; 48 h plus 8 h 3H-thymidine pulse
  B cell proliferation, in words: cause B cells to proliferate
[4]; [5]
  cpm1: 29280 cpm
  cpm2: 33430 cpm
  cpm3: 30056 cpm
[4]; B cells, Donor 146 mean, Experiment A
  mean cpm: 30922 cpm
[4]; [6]
  cpm1: 35729 cpm
  cpm2: 18032 cpm
  cpm3: 21166 cpm
[4]; B cells, Donor 147 mean, Experiment A
  mean cpm: 24976 cpm
[4]; [7]
  cpm1: 13678 cpm
  cpm2: 12732 cpm
  cpm3: 9003 cpm
[4]; B cells, donor 194 mean, Experiment B
  mean cpm: 11804 cpm
[4]; B cells, mean of Donors 146 and 147, Experiment A
  mean of both: 27949 cpm
